From patent publication US9120749B2, “Quinoline derivatives and MELK inhibitors containing the same” (ONCOTHERAPY SCIENCE, INC., priority 2010, dated 2015)
Counter-ions that a name gives are not always drawn. Like-named read-outs stand apart in the source and are kept apart here.

How the values were obtained:
MELK = MELK (Homo sapiens, UniProt Q14680); test: Kinase assay: MELK activity, phosphorylation of FITC-labeled histone H3 peptide measured by IMAP fluorescence polarization; assay type: biochemical
Sequence of MELK (Q14680 whole entry, looked up): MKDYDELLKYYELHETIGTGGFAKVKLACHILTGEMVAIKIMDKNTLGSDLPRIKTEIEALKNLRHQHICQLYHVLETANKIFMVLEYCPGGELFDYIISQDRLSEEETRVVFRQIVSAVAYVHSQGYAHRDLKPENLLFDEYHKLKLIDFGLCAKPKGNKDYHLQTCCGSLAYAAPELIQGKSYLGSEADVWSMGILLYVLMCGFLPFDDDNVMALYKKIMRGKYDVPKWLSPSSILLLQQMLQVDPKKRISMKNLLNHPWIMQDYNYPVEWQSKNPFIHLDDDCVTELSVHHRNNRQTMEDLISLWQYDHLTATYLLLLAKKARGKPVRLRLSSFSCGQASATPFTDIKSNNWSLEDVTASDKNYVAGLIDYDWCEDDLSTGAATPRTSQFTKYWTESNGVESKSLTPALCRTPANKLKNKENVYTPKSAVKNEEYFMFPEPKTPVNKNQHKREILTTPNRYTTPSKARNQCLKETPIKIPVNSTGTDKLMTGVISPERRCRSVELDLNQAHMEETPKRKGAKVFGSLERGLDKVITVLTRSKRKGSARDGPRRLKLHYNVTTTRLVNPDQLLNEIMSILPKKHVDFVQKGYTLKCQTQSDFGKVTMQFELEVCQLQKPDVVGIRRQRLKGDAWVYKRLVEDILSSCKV
Procedure, shortened: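 Kinase reactions ran with or without test compound (final DMSO 1%) on a fluorescein-tagged H3 peptide. Progressive binding solution was added to terminate them. After a half-hour room-temperature incubation, polarization was measured.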

A549 cells = test: Cell-based assay: anti-proliferative activity, Cell Counting Kit-8, 72 hours (A549); settings: Homo sapiens, A549, 72 h, 72 hours
Procedure, shortened: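 Cell Counting Kit-8 read-out of A549 growth after 72 hours of inhibitor exposure, cells plated in 96-well format. Values reported as IC50.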

DU4475 cells = test: Cell-based assay: anti-proliferative activity, Cell Counting Kit-8, 72 hours (DU4475); settings: Homo sapiens, DU-4475, 72 h
22Rv1 cells = test: Cell-based assay: anti-proliferative activity, Cell Counting Kit-8, 72 hours (22Rv1); settings: Homo sapiens, 22Rv1, 72 h
T47D cells = test: Cell-based assay: anti-proliferative activity, Cell Counting Kit-8, 72 hours (T47D); settings: Homo sapiens, T47D, 72 h
Procedure, shortened: (§1)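 First, lysates underwent western blotting with anti-MELK antibody to establish expression. Next, cells went into 96-well plates. Then candidate inhibitors were added. Finally, viability was determined by CCK-8 at 72 h and IC50 computed.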

HT-1197 cells = test: Cell-based assay: anti-proliferative activity, Cell Counting Kit-8, 72 hours (HT-1197, negative control without MELK expression); settings: Homo sapiens, HT1197, 72 h, HT1197 cells (negative control, no MELK expression), 72 hours
Procedure, shortened: as §1

[1] = read-out: IC50 (μM) (kinase assay)
[2] = MELK kinase assay, IMAP fluorescence polarization, 50 micro-M ATP, read-out: IC50 (μM) (kinase assay)

Row | SMILES | IC50 (MELK; [1]) [µM] | IC50 (A549 cells) [µM] | IC50 (DU4475 cells) [µM] | IC50 (22Rv1 cells) [µM] | IC50 (T47D cells) [µM] | IC50 (HT-1197 cells) [µM] | IC50 (MELK) [µM] | IC50 (MELK; [2]) [µM]
1 | COc1cc(-c2ccc3ncc(C(C)=O)c(N[C@H]4CC[C@H](CN5CCC[C@H]5CO)CC4)c3c2)cc(Cl)c1O [Example 793, 1-(6-(3-chloro-4-hydroxy-5-methoxyphenyl)-4-((1S,4r)-4-(((S)-2-(hydroxymethyl)pyrrolidin-1-yl)methyl)cyclohexylamino)quinolin-3-yl)ethanone] | 0.0018 | 0.17 | 0.33 | 0.34 | 0.15 | 7.1 | – | –
2 | CNC1CCCN(c2ccc(Nc3c(C(C)=O)cnc4ccc(-c5cc(Cl)c(O)c(Cl)c5)cc34)cn2)C1 (stereo not drawn) [Example 806, 1-(6-(3,5-dichloro-4-hydroxyphenyl)-4-((6-(3-(methylamino)piperidin-1-yl)pyridin-3-yl)amino)quinolin-3-yl)ethanone trihydrochloride] | – | 0.054 | 0.032 | 0.039 | 0.027 | 0.33 | 0.0012 | –
3 | CC(=O)c1cnc2ccc(-c3cc(F)c(O)c(Cl)c3)cc2c1N[C@H]1CC[C@H](N(C)C)CC1 [Example 763, 1-{6-(3-Chloro-5-fluoro-4-hydroxyphenyl)-4-[trans-4-(dimethylamino)cyclohexylamino]quinolin-3-yl}ethanone] | 0.0087 | 0.27 | 0.093 | 0.14 | 0.05 | 1.8 | – | –
4 | CC(=O)c1cnc2ccc(-c3cc(Cl)c(O)c(Cl)c3)cc2c1NC1CCN(CCN(C)C)CC1 [Example 823, 1-(6-(3,5-dichloro-4-hydroxyphenyl)-4-(1-(2-(dimethylamino)ethyl)piperidin-4-ylamino)quinolin-3-yl)ethanone] | – | 0.45 | 0.16 | 0.32 | 0.21 | 2.6 | – | 0.0027
5 | CC(=O)c1cnc2ccc(-c3cc(F)c(O)c(Cl)c3)cc2c1Nc1cnn(C2CCN(C)C2)c1 (stereo not drawn) [Example 813, 1-(6-(3-chloro-5-fluoro-4-hydroxyphenyl)-4-((1-(1-methylpyrrolidin-3-yl)-1H-pyrazol-4-yl)amino)quinolin-3-yl)ethanone dihydrochloride] | – | 0.25 | 0.054 | 0.11 | 0.07 | 0.75 | – | 0.0021
6 | CC(=O)c1cnc2ccc(-c3cc(F)c(O)c(Cl)c3)cc2c1NC1CCN(CCN(C)C)CC1 [Example 821, 1-(6-(3-chloro-5-fluoro-4-hydroxyphenyl)-4-(1-(2-(dimethylamino)ethyl)piperidin-4-ylamino)quinolin-3-yl)ethanone] | – | 0.59 | 0.17 | 0.25 | 0.23 | 3.3 | – | 0.0053
7 | CC(=O)c1cnc2ccc(-c3cc(Cl)c(O)c(Cl)c3)cc2c1Nc1cnn(C2CCN(C)C2)c1 (stereo not drawn) [Example 814, 1-(6-(3,5-dichloro-4-hydroxyphenyl)-4-((1-(1-methylpyrrolidin-3-yl)-1H-pyrazol-4-yl)amino)quinolin-3-yl)ethanone dihydrochloride] | – | 0.29 | 0.057 | 0.13 | 0.14 | 0.78 | – | 0.0009
8 | CNC1CCCN(c2ccc(Nc3c(C(C)=O)cnc4ccc(-c5cc(F)c(O)c(Cl)c5)cc34)cn2)C1 (stereo not drawn) [Example 815, 1-(6-(3-chloro-5-fluoro-4-hydroxyphenyl)-4-((6-(3-(methylamino)piperidin-1-yl)pyridin-3-yl)amino)quinolin-3-yl)ethanone trihydrochloride] | – | 0.041 | 0.041 | 0.034 | 0.016 | 0.052 | – | 0.0018
9 | CN(C)CCN1CCC(Nc2c(C(=O)C3CC3)cnc3ccc(-c4cc(Cl)c(O)c(Cl)c4)cc23)CC1 [Example 819, cyclopropyl(6-(3,5-dichloro-4-hydroxyphenyl)-4-(1-(2-(dimethylamino)ethyl)piperidin-4-ylamino)quinolin-3-yl)methanone] | – | 0.44 | 0.17 | 0.64 | 0.38 | 3.3 | – | 0.0024
10 | CC(=O)c1cnc2ccc(-c3cc(Cl)c(O)c(Cl)c3)cc2c1N[C@H]1CC[C@H](CN2CCC(N)C2)CC1 (stereo partly drawn) [Example 779, 1-(4-(1R,4R)-4-((3-aminopyrrolidin-1-yl)methyl)cyclohexylamino)-6-(3,5-dichloro-4-hydroxyphenyl)quinolin-3-yl)ethanone hydrochloride] | 0.0017 | 1 | 0.13 | 0.23 | 0.14 | 10 | – | –
11 | CCN(C)C[C@H]1CC[C@H](Nc2c(C(C)=O)cnc3ccc(-c4cc(Cl)c(O)c(OC)c4)cc23)CC1 [Example 816, 1-(6-(3-chloro-4-hydroxy-5-methoxyphenyl)-4-(1R,4R)-4-((ethyl(methyl)amino)methyl)cyclohexylamino)quinolin-3-yl)ethanone hydrochloride] | – | 0.25 | 0.36 | 0.44 | 0.28 | 7.3 | – | 0.0027
12 | CC(=O)c1cnc2ccc(-c3cc(Cl)c(O)c(Cl)c3)cc2c1N[C@H]1CCC[C@@H](CN(C)C)C1 [Example 827, 1-(6-(3,5-dichloro-4-hydroxyphenyl)-4-((1S,3R)-3-((dimethylamino)methyl)cyclohexylamino)quinolin-3-yl)ethanone hydrochloride] | – | 0.51 | 0.2 | 0.43 | 0.49 | 5.9 | – | 0.0033
13 | CNC1CCCN(c2ccc(Nc3c(C(=O)C4CC4)cnc4ccc(-c5cc(Cl)c(O)c(Cl)c5)cc34)cn2)C1 (stereo not drawn) [Example 807, cyclopropyl(6-(3,5-dichloro-4-hydroxyphenyl)-4-((6-(3-(methylamino)piperidin-1-yl)pyridin-3-ylamino)quinolin-3-yl)methanone trihydrochloride] | 0.0015 | 0.056 | 0.032 | 0.055 | 0.058 | 1.1 | – | –
14 | CC(=O)c1cnc2ccc(-c3cc(F)c(O)c(Cl)c3)cc2c1N[C@H]1CC[C@H](CN2CCNCC2)CC1 [Example 783, 1-(6-(3-chloro-5-fluoro-4-hydroxyphenyl)-4-((trans-4-(piperazin-1-ylmethyl)cyclohexyl)amino)quinolin-3-yl)ethanone dihydrochloride] | 0.0088 | 0.2 | 0.057 | 0.087 | 0.027 | 4.2 | – | –
15 | CNC1CCN(c2ccc(Nc3c(C(C)=O)cnc4ccc(-c5cc(Cl)c(O)c(Cl)c5)cc34)cn2)C1 (stereo not drawn) [Example 788, 1-(6-(3,5-dichloro-4-hydroxyphenyl)-4-((6-(3-(methylamino)pyrrolidin-1-yl)pyridin-3-yl)amino)quinolin-3-yl)ethanone trihydrochloride] | 0.0017 | 0.16 | 0.07 | 0.1 | 0.071 | 8.6 | – | –
16 | CN1CCN(c2ccc(Nc3c(C(=O)C4CC4)cnc4ccc(-c5cc(F)c(O)c(F)c5)cc34)cn2)CC1 [Example 778, cyclopropyl(6-(3,5-difluoro-4-hydroxyphenyl)-4-(6-(4-methylpiperazin-1-yl)pyridin-3-ylamino)quinolin-3-yl)methanone] | 0.021 | 0.17 | 0.22 | 0.48 | 0.1 | 2.6 | – | –
